Results on two molecules are retold here after patent EP4389113A1, “DOSAGE FORM FOR INTRAMEDULLARY INJECTION OR IMPLANTATION COMPRISING ELTROMBOPAG FOR USE IN THE IMPROVEMENT OF HEMATOPOIETIC STEM CELL TRANSPLANTATION” (PK MED, priority 2022, dated 2024).

The target of series [1] is T1, human MMP-9 (Homo sapiens, UniProt P14780).
T1 construct: made in house; host or cells: Sf9 cells
As to the kind of experiment: Proteolysis of SDF-1α by activated MMP-9, multiplex western blot. The class given is biochemical. As for the experimental part:
(§1) • Particle size was determined using a Malvern Mastersizer MS3000 laser diffraction particle size analyzer. A 1 mg/ml microparticles in deionized water preparation was introduced in the apparatus and the measurement run 3 times. The results shown in the examples are the mean of the three measures. • Eltrombopag microparticle drug load was determined by first solubilizing 10 mg of drug-loaded polymeric microparticles in 2,5 mL of an acetonitrile/water mixture at a 80/20 v/v ratio. The medium was then centrifuged for 15 min at 4000 rpm and the supernatant filtrated through a 0.45 µm PTFE filter (Acrodisc PTFE). A 2 ml aliquot of the filtrated supernatant was then analyzed by HPLC to determine the microparticle drug load. HPLC analysis was conducted using a silica-based reversed-phase C18 column [Kinetex C18, 100mm × 4,6 mm, 2,6 µm particle size] and a mobile phase consisting in [acetonitrile/ammonium formate (10 mM) 80/20 v/v adjusted at pH 2]. The flow rate was set at 0,5 mL/min, the injection volume was 10µL and the UV detection was set at 244 nm. • For incubation of Eltrombopag olamine with activated human proteases, proMMP-8 and pro MMP-9 proteases were first activated. Human proMMP-8 (Cat. no. 908-MP, R&D systems) at 100 µg/ml in buffer containing 50 mM Tris, 150 mM NaCl (sodium chloride), 5 mM CaCl2 (calcium chloride) and 0.01% tween 20 (pH 7.6) was activated by incubation with 1 mM p-aminophenylmercuric acetate for 1h at 37°C. Human proMMP-9 was expressed in Sf9 cells, purified by gelatin-sepharose chromatography and activated by incubation with the catalytic domain of MMP-3 (cat. No. 444217, Merck Millipore). Specifically, human proMMP-9 at 920 µg/ml in the same described buffer as for MMP-8 activation was incubated with the catalytic domain of MMP-3 at a molar ratio of 1/100 (MMP-3/MMP-9) for 2h at 37°C in. The final concentration of MMP-9 was 10 µM and the final concentration of MMP-3 was 0.1 µM. Concentrated eltrombopag olamine solution was prepared by solubilization in water at a concentration of 10 mg/ml for 24h on rotor at 4°C, and further diluted at the final concentration needed. Activated MMP-8 or MMP-9 were then incubated at a final concentration of 625 nM in Eltrombopag olamine at different concentrations (50 µM, 10 µM, 1 µM and 0.1 µM) in a final volume of 3µl for 30 minutes at 37°C in calcium-free buffer containing 50 mM Tris, 150 mM NaCl, 0.01% tween 20 (pH 7.6) using low protein-binding tubes (Protein LoBind tubes, Eppendorf). • Incubation of human SDF-1α (Cat. no. 300-28A, Peprotech) in the solution containing the activated human proteases and eltrombopag olamine was done at a MMP/SDF-1 molar ratio of 1/5 in the same calcium-free buffer and tubes described, with a final SDF-1 α concentration of 3.125 µM and a final volume of 4µl at 37°C for 2h. A negative control without eltrombopag olamine was similarly prepared. • SDF-1 proteolysis was analyzed by multiplex western blot. All samples were diluted in reducing loading buffer (10% β-mercaptoethanol, 0.1% bromophenol blue, 4% SDS (sodium dodecyl sulfate), 20% glycerol, 125 mM Tris, pH 6.8) and boiled at 90°C for 20 min. Next, the equivalent of 100 ng SDF-1 was loaded onto Novex 16% tricine gels (Cat. no. EC6695BOX, Invitrogen). The Chameleon Duo Pre-stained Protein Ladder was used as a molecular weight using 6ul in one well. Proteins in the samples were separated by denaturing SDS-PAGE using tricine running buffer (100 mM Tris, 100 mM Tricine, 0.1% SDS, pH 8.3) under a constant voltage of 120V (±60 min). After electrophoresis, proteins were transferred to polyvinylidene difluoride (PVDF) membranes with the Trans-Blot Turbo Transfer System (Biorad) with Trans-Blot Turbo RTA Mini 0.45 µm low fluorescence PVDF Transfer Kit (Cat. No. 1704274, Biorad). […]
(In general: Immunoblotting shows a protein as a band on a membrane.)

In series [2] the target is T2, human MMP-8 (Homo sapiens, UniProt P22894).
T2 construct: purchased R&D systems 908-MP
T2 sequence (P22894 101-467): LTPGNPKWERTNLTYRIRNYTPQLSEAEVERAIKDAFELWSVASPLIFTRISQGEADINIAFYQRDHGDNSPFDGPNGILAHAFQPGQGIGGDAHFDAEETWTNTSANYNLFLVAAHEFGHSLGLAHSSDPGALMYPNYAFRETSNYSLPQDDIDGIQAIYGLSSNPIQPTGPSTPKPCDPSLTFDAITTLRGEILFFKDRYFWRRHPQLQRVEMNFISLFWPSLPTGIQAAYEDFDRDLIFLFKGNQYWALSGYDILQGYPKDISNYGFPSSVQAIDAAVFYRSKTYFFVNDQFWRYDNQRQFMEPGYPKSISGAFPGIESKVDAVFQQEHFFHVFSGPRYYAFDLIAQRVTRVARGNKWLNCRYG
As to the kind of experiment: Proteolysis of SDF-1α by activated MMP-8, multiplex western blot. The class given is biochemical. As for the experimental part:
as §1

The conditions of series [3]: after oral administration of a 50 mg tablet; cited from earlier work.
Setting [4] is: SDF-1 plus MMP-9 plus 0.1 µM eltrombopag olamine.
[5] abbreviates: SDF-1 plus MMP-9 plus 1 µM eltrombopag olamine.
Setting [6] is: SDF-1 plus MMP-9 plus 10 µM eltrombopag olamine.
Where [7] appears, read: SDF-1 plus MMP-9 plus 50 µM eltrombopag olamine.
[8] abbreviates: SDF-1 plus MMP-8 plus 0.1 µM eltrombopag olamine.
Setting [9] is: SDF-1 plus MMP-8 plus 1 µM eltrombopag olamine.
The mark [10] stands for this setting: SDF-1 plus MMP-8 plus 10 µM eltrombopag olamine.
The mark [11] stands for this setting: SDF-1 plus MMP-8 plus 50 µM eltrombopag olamine.

T1 sequence (P14780 107-707 limits assumed): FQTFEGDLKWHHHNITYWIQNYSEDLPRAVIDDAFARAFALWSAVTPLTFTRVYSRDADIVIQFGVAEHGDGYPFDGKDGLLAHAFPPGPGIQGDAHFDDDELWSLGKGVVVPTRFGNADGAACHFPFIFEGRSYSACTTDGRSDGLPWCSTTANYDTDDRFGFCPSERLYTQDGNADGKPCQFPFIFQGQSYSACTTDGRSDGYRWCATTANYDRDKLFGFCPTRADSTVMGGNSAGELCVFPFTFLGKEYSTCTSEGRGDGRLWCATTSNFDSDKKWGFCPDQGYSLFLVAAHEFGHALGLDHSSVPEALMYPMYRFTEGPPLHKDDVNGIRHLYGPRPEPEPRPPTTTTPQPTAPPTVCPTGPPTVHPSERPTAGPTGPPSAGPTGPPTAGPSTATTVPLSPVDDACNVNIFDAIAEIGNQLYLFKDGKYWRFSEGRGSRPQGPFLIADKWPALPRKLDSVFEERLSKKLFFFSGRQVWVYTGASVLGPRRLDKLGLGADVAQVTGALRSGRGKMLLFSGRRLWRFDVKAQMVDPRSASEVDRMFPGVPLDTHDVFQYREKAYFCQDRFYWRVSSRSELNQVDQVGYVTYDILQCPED

Consider `CC1=NN(c2ccc(C)c(C)c2)C(=O)/C1=N\Nc1cccc(-c2cccc(C(=O)O)c2)c1O.NCCO.NCCO` [eltrombopag olamine, 3'-{(2Z)-2-[1-(3,4-dimethylphenyl)-3-methyl-5-oxo-1,5-dihydro-4H-pyrazol-4-ylidene]hydrazino}-2'-hydroxy-3-biphenylcarboxylic acid - 2-aminoethanol (1:2)], for which the “intact SDF-1α retrieved” value in series [1] (MMP-9 in the presence of 50 µM eltrombopag olamine, only 20% in its absence) came to 72%; in series [2] (MMP-8 in the presence of 50 µM eltrombopag olamine, only 3.5% in its absence), 30%. For the same molecule, the “N-term intact SDF-1α (RFUs)” value in series [1] (setting [4]) is 0,013 RFUs; in series [1] (setting [5]), 0,012 RFUs; in series [1] (setting [6]) it was 0,010 RFUs; in series [1] (SDF-1 plus MMP-9 plus 50 µM eltrombopag olamine, MMP/SDF-1α molar ratio 1/5, 37°C, 2h) it was 0,033 RFUs; in series [2] (setting [8]), 0,0006 RFUs; in series [2] (setting [9]) it was 0,0001 RFUs. Besides, the “N-term intact SDF-1α (RFUs)” value was 0,0001 RFUs in series [2] (setting [10]) and 0,0020 RFUs in series [2] (SDF-1 plus MMP-8 plus 50 µM eltrombopag olamine, MMP/SDF-1α molar ratio 1/5, 37°C, 2h). The “Ratio of intact/total SDF-1α” value in series [1] (setting [4]) is listed as 0,003; in series [1] (setting [5]), 0,003; in series [1] (setting [6]), 0,002; in series [1] (setting [7]), 0,007; in series [2] (setting [8]), 0,0001; in series [2] (setting [9]), 0,0000. For the same molecule, the “Ratio of intact/total SDF-1α” value was 0,0000 in series [2] (setting [10]) and 0,0002 in series [2] (setting [11]). Also, the “Total SDF-1α (RFUs)” value is 3,951 RFUs in series [1] (setting [4]); 3,644 RFUs in series [1] (setting [5]); 4,142 RFUs in series [1] (setting [6]); 4,687 RFUs in series [1] (setting [7]); 7,501 RFUs in series [2] (setting [8]); 7,986 RFUs in series [2] (setting [9]). Besides, the “Total SDF-1α (RFUs)” value in series [2] (setting [10]) is 6,989 RFUs; in series [2] (setting [11]), 10,430 RFUs.
Turning to `CC1=NN(c2ccc(C)c(C)c2)C(=O)/C1=N\Nc1cccc(-c2cccc(C(=O)O)c2)c1O` [EPAG, 3'-[(2Z)-[1-(3,4-dimethylphenyl)-1,5-dihydro-3-methyl-5-oxo-4H-pyrazol-4-ylidene]hydrazino]-2'-hydroxy-[1,1'-biphenyl]-3-carboxylic acid], the maximum plasmatic concentration in series [3] is listed as 14 µM.
